{"source": "patent US4123552A", "about": "“Compositions for preserving crops and animal feedstuffs” (Chevron Research Company, priority 1975, dated 1978)", "key": {"high moisture corn": {"system": "high moisture corn", "assay": "Preservation of high moisture corn in ventilated cans (time until temperature exceeds room temperature)", "details": "for Weeks Effective: corn 25 percent moisture, 70-72 F", "method": "High moisture corn (25 percent moisture) was treated with various methylene and polyoxymethylene esters of propionic or acetic acid of various dosages. The esters were applied to the corn in a mixer for one minute at 32 RPM. Three replicate two gallon ventilated cans were filled with the treated corn. The cans were then held at a temperature of 70°-72° F. Temperature readings were taken semi-weekly by means of thermocouples in the center of each can. When the temperature exceeded constant room temperature for at least an 8-hour period the treatment was considered broken."}, "fungal growth": {"system": "fungal growth", "assay": "Visual fungal growth rating on treated crops in ventilated cans", "set-up": "key: 1 = no growth, 10 = heavy uniform growth", "details": "1-10 basis", "method": "Methylene bispropionate was applied to a variety of crops at various dosages by spraying or in a mixer. Two ventilated cans were filled with each treated crop. The cans were then maintained at 70° F. ±5° F. Each can was periodically visually observed for fungal growth and the observations were translated into a growth rating on a 1-10 basis; 1 indicating no growth and 10 indicating heavy uniform growth. For comparison, two samples of each untreated crop were also tested. The crops employed, the percent weight methylene bispropionate (MBP) based on weight crop, and the fungal rating 2, 7-8 and 28-29 days after treatment are tabulated in Table III."}, "All Species": {"system": "All Species", "assay": "Control of seed- and soil-borne pathogens during storage of corn seeds (Table IV), all species", "assay_type": "cell-based, Rhizopus, Penicillium, Fusarium", "details": "relative to untreated check", "method": "A variety of bis-esters was tested for the control of seed- and soil-borne pathogens during storage of corn seeds (Zea mays) by the following procedure.\n(§1) A small amount of acetone was added to the bis-ester to make specific volume, plus a small portion of emulsifier making it into a slurry. This preparation was diluted with water to the desired concentration. Solution was then evenly distributed on the wall of a glass jar. High moisture feedcorn with natural infection was stored frozen after harvest until used for this test. The corn seeds were rolled in the jar until they were coated and the solution was completely absorbed on them.\n(§2) Following the treatment, the corn seeds were plated on Potato Dextrose Agar plates. For comparison, untreated corn seeds were also plated. Propionic acid was also tested for comparison.\nThe percentage control of all species was based on the total sum average of mycelial growth in millimeters of all species in the treated seeds relative to the untreated check. The fast growing Rhizopus was evaluated 7 days after treatment, the other fungi after 14 days."}, "Rhizopus sp.": {"system": "Rhizopus sp.", "assay": "Concentration for 90% control of pathogen on corn seeds (Table V), Rhizopus sp.", "assay_type": "cell-based", "details": "5 days after treatment", "method": "as §1, §2\n(§3) A variety of bis-esters was tested for the control of seed- and soil-borne pathogens during the storage of corn seeds (Zea mays) by the procedure of Example 11. For comparison, propionic acid was also tested.\n(§4) Control of each pathogen was determined by mycelial growth in millimeters in the treated seeds relative to untreated seeds. Mycelial growth of Rhizopus species and Fusarium species was evaluated 5 days after treatment. Mycelial growth in Aspergillus niger was evaluated 14 days after treatment.\n(§5) The bis-ester tested and the concentration of active ingredient in ounces per 100 lbs. of corn seeds for 90 percent control of each pathogen species are tabulated in Table V."}, "Fusarium sp.": {"system": "Fusarium sp.", "assay": "Concentration for 90% control of pathogen on corn seeds (Table V), Fusarium sp.", "assay_type": "cell-based", "details": "5 days after treatment", "method": "as §1, §2, §3, §4, §5"}, "Aspergillus niger [1]": {"system": "Aspergillus niger", "assay": "Concentration for 90% control of pathogen on corn seeds (Table V), Aspergillus niger", "assay_type": "cell-based", "details": "14 days after treatment", "method": "as §1, §2, §3, §4, §5"}, "[2]": {"assay": "Acute oral toxicity in white rats", "details": "rat, in vivo", "from_the_text": "Methylene bispropionate was subjected to acute oral toxicity studies using white rats."}, "Candida albicans": {"system": "Candida albicans", "assay": "Antimicrobial activity of MBP on nutrient agar, Candida albicans", "assay_type": "cell-based", "details": "read-out: Germistatic Concentration of MBP", "method": "(§6) Microbiological tests were conducted to determine the antimicrobial activity of methylene bispropionate (MBP). The minimum concentration of MBP, capable of inhibiting the growth of five species of bacteria, two species of mold and one species of yeast was determined. Petri plates containing nutrient agar and various concentrations of MBP were inoculated with each of the test species. The identification of these organisms and the effective concentration of MBP inhibiting growth are shown below: […]"}, "Staphylococcus aureus": {"system": "Staphylococcus aureus", "assay": "Antimicrobial activity of MBP on nutrient agar, Staphylococcus aureus", "assay_type": "cell-based", "details": "read-out: Germistatic Concentration of MBP", "method": "as §6"}, "Escherichia coli": {"system": "Escherichia coli", "assay": "Antimicrobial activity of MBP on nutrient agar, Escherichia coli", "assay_type": "cell-based", "details": "read-out: Germistatic Concentration of MBP", "method": "as §6"}, "Streptococcus pyogenes": {"system": "Streptococcus pyogenes", "assay": "Antimicrobial activity of MBP on nutrient agar, Streptococcus pyogenes", "assay_type": "cell-based", "details": "read-out: Germistatic Concentration of MBP", "method": "as §6"}, "Aspergillus niger [3]": {"system": "Aspergillus niger", "assay": "Antimicrobial activity of MBP on nutrient agar, Aspergillus niger", "assay_type": "cell-based", "details": "read-out: Germistatic Concentration of MBP", "method": "as §6"}, "[4]": {"system": "Trichophyton interdigitale", "assay": "Antimicrobial activity of MBP on nutrient agar, Trichophyton interdigitale", "assay_type": "cell-based", "details": "read-out: Germistatic Concentration of MBP", "method": "as §6"}, "Pseudomonas aeruginosa": {"system": "Pseudomonas aeruginosa", "assay": "Antimicrobial activity of MBP on nutrient agar, Pseudomonas aeruginosa", "assay_type": "cell-based", "details": "read-out: Germistatic Concentration of MBP", "method": "as §6"}, "Bacillus subtilis": {"system": "Bacillus subtilis", "assay": "Antimicrobial activity of MBP on nutrient agar, Bacillus subtilis", "assay_type": "cell-based", "details": "read-out: Germistatic Concentration of MBP", "method": "as §6"}}, "data": [{"smiles": "CCC(=O)OCOC(=O)CC", "note": "[Methylene Bispropionate]", "values": [{"measurement": "Weeks Effective", "setting": "high moisture corn; 3 Oz/Bu", "result": "> 12", "unit": "Weeks"}, {"measurement": "Weeks Effective", "setting": "high moisture corn; 6 Oz/Bu", "result": "> 12", "unit": "Weeks"}, {"measurement": "effectiveness in preservation of high moisture corn (in words)", "setting": "high moisture corn; from Table II", "result": "remarkably superior to propionic acid in the preservation of high moisture corn"}, {"measurement": "Fungal Rating", "setting": "fungal growth; Hay (4\" seedlings), […] Wt MBP, 7-8 days", "result": 0}, {"measurement": "Fungal Rating", "setting": "fungal growth; Hay (4\" seedlings), […] Wt MBP, 28-29 days", "result": 4}, {"measurement": "Fungal Rating", "setting": "fungal growth; Hay (4\" seedlings), […] Wt MBP, 2 days", "result": 0}, {"measurement": "Fungal Rating", "setting": "fungal growth; Sorghum (33% H2 O), 0.51 % Wt MBP, 7-8 days", "result": 0}, {"measurement": "Fungal Rating", "setting": "fungal growth; Sorghum (33% H2 O), 0.51 % Wt MBP, 28-29 days", "result": 0}, {"measurement": "Fungal Rating", "setting": "fungal growth; Sorghum (33% H2 O), 0.51 % Wt MBP, 2 days", "result": 0}, {"measurement": "Fungal Rating", "setting": "fungal growth; Soybeans (26% H2 O), 0.51 % Wt MBP, 7-8 days", "result": 0}, {"measurement": "Fungal Rating", "setting": "fungal growth; Soybeans (26% H2 O), 0.51 % Wt MBP, 28-29 days", "result": 0}, {"measurement": "Fungal Rating", "setting": "fungal growth; Soybeans (26% H2 O), 0.51 % Wt MBP, 2 days", "result": 0}, {"measurement": "Fungal Rating", "setting": "fungal growth; Wheat (26% H2 O), 0.6 % Wt MBP, 7-8 days", "result": 0}, {"measurement": "Fungal Rating", "setting": "fungal growth; Wheat (26% H2 O), 0.6 % Wt MBP, 28-29 days", "result": 0}, {"measurement": "Fungal Rating", "setting": "fungal growth; Wheat (26% H2 O), 0.6 % Wt MBP, 2 days", "result": 0}, {"measurement": "Fungal Rating", "setting": "fungal growth; Wood Chips (freshly cut), 1.4 % Wt MBP, 7-8 days", "result": 0}, {"measurement": "Fungal Rating", "setting": "fungal growth; Wood Chips (freshly cut), 1.4 % Wt MBP, 28-29 days", "result": 0}, {"measurement": "Fungal Rating", "setting": "fungal growth; Wood Chips (freshly cut), 1.4 % Wt MBP, 2 days", "result": 0}, {"measurement": "% Control All Species", "setting": "All Species; 1.0 Oz./100 Lbs.", "result": 97, "unit": "%"}, {"measurement": "% Control All Species", "setting": "All Species; 2.5 Oz./100 Lbs.", "result": 100, "unit": "%"}, {"measurement": "% Control All Species", "setting": "All Species; 6.4 Oz./100 Lbs.", "result": 100, "unit": "%"}, {"measurement": "% Control All Species", "setting": "All Species; 16 Oz./100 Lbs.", "result": 100, "unit": "%"}, {"measurement": "Conc. for 90% Control, Rhizopus sp.", "setting": "Rhizopus sp.", "result": 0.85, "unit": "oz./100 lbs."}, {"measurement": "Conc. for 90% Control, Fusarium sp.", "setting": "Fusarium sp.", "result": 0.5, "unit": "oz./100 lbs."}, {"measurement": "inhibition of growth at 0.16 oz/100 lb", "setting": "Aspergillus niger [1]; Aspergillus niger, 336 h, 0.16 oz./100 lbs.", "result": 99, "unit": "%"}, {"measurement": "Conc. for 90% Control, Aspergillus niger", "setting": "Aspergillus niger [1]; corn seeds", "result": 0.16, "unit": "oz./100 lbs."}, {"measurement": "LD50", "setting": "[2]", "result": 2800, "unit": "mg/kg"}, {"measurement": "MIC", "setting": "Candida albicans", "result": 1000, "unit": "µg/mL"}, {"measurement": "MIC", "setting": "Staphylococcus aureus", "result": 1000, "unit": "µg/mL"}, {"measurement": "MIC", "setting": "Escherichia coli", "result": 6000, "unit": "µg/mL"}, {"measurement": "MIC", "setting": "Streptococcus pyogenes", "result": 700, "unit": "µg/mL"}, {"measurement": "MIC", "setting": "Aspergillus niger [3]", "result": 800, "unit": "µg/mL"}, {"measurement": "MIC", "setting": "[4]", "result": 800, "unit": "µg/mL"}, {"measurement": "MIC", "setting": "Pseudomonas aeruginosa", "result": 7000, "unit": "µg/mL"}, {"measurement": "MIC", "setting": "Bacillus subtilis", "result": 8000, "unit": "µg/mL"}]}]}
